13 compounds from ChEMBL document CHEMBL3593229, “Identification of a potent 5-phenyl-thiazol-2-ylamine-based inhibitor of FLT3 with activity against drug resistance-conferring point mutations” (Eur J Med Chem, 2015) can be followed below.

pIC50: −log10 of the molar value.

The target in data set [1] is Vascular endothelial growth factor receptor 2 (Homo sapiens, UniProt P35968). As to the kind of experiment: biochemical. In kind it is cell-based, Sf9.
Description: Inhibition of recombinant GST-tagged VEGFR2 kinase domain (V789 to V1356) (unknown origin) expressed in insect Sf9 cells using polyGlu4:Tyr peptide as substrate after 120 mins by Kinase-Glo assay
The next data set has as its target T1, Aurora kinase A (Homo sapiens, UniProt O14965).
T1 sequence (O14965 whole entry): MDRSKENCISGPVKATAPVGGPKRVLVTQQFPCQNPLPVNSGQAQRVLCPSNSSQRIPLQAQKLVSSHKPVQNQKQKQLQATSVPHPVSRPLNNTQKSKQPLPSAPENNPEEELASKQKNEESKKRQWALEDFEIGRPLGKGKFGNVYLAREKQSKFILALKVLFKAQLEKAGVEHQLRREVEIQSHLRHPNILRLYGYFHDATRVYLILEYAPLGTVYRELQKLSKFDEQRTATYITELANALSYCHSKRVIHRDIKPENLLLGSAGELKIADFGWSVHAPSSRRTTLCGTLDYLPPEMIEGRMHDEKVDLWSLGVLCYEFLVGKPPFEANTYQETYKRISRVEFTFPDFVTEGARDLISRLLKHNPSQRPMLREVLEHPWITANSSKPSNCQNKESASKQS
As to the kind of experiment: biochemical.

Data set [2] relates to Receptor-type tyrosine-protein kinase FLT3 (Homo sapiens), P36888 [UNDEFINED MUTATION]. As to conditions: MOLM-13.
Description: Inhibition of FLT3 ITD heterozygous mutant in human MOLM-13 cells assessed as cell growth inhibition after 72 hrs by MTS assay
Data set [3] addresses T2, Receptor-type tyrosine-protein kinase FLT3 (Homo sapiens, UniProt P36888).
T2 sequence (P36888 whole entry): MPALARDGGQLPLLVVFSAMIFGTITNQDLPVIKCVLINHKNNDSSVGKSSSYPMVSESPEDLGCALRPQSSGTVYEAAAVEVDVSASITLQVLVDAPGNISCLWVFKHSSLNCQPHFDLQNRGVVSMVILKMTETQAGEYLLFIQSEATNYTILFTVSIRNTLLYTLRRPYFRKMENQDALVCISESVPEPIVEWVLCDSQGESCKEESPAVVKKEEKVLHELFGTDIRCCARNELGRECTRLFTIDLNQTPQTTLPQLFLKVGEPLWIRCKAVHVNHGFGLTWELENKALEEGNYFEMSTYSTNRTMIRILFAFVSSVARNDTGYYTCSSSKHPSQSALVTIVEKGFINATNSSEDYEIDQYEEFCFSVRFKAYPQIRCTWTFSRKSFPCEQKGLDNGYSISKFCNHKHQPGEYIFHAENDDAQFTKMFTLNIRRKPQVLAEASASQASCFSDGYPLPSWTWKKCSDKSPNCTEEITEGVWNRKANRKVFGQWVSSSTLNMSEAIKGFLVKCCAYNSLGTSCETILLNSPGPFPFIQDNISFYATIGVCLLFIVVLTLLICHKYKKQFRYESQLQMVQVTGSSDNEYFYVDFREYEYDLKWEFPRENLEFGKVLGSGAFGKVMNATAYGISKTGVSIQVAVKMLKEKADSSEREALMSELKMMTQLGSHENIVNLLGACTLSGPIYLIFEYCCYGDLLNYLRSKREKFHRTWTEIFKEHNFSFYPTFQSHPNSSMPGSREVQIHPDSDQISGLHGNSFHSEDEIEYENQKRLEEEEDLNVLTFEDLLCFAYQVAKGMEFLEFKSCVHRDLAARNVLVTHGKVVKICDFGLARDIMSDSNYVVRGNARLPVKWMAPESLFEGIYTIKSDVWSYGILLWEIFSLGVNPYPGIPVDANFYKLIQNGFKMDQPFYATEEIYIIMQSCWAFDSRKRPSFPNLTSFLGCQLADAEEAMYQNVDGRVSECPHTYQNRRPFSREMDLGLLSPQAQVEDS
As to the kind of experiment: biochemical. It counts as cell-based, Sf9.
Description: Inhibition of wild type GST-tagged FLT3 kinase domain (Y567 to S993) (unknown origin) expressed in baculovirus infected insect Sf9 cells using Her2 peptide as substrate after 4 hrs by Kinase-Glo assay

Data set [4] is described as follows: AUC (0 to infinity) in Sprague-Dawley rat at 10 mg/kg, po. In kind it is ADME, organism-based. On the set-up: dose 10 mg/kg, time infinity, route oral. The note with it: in vivo.
A short description of data set [5]: Oral bioavailability in Sprague-Dawley rat at 10 mg/kg. As to conditions: in vivo. In kind it is ADME, organism-based.

Sequence of Vascular endothelial growth factor receptor 2 (P35968 whole entry): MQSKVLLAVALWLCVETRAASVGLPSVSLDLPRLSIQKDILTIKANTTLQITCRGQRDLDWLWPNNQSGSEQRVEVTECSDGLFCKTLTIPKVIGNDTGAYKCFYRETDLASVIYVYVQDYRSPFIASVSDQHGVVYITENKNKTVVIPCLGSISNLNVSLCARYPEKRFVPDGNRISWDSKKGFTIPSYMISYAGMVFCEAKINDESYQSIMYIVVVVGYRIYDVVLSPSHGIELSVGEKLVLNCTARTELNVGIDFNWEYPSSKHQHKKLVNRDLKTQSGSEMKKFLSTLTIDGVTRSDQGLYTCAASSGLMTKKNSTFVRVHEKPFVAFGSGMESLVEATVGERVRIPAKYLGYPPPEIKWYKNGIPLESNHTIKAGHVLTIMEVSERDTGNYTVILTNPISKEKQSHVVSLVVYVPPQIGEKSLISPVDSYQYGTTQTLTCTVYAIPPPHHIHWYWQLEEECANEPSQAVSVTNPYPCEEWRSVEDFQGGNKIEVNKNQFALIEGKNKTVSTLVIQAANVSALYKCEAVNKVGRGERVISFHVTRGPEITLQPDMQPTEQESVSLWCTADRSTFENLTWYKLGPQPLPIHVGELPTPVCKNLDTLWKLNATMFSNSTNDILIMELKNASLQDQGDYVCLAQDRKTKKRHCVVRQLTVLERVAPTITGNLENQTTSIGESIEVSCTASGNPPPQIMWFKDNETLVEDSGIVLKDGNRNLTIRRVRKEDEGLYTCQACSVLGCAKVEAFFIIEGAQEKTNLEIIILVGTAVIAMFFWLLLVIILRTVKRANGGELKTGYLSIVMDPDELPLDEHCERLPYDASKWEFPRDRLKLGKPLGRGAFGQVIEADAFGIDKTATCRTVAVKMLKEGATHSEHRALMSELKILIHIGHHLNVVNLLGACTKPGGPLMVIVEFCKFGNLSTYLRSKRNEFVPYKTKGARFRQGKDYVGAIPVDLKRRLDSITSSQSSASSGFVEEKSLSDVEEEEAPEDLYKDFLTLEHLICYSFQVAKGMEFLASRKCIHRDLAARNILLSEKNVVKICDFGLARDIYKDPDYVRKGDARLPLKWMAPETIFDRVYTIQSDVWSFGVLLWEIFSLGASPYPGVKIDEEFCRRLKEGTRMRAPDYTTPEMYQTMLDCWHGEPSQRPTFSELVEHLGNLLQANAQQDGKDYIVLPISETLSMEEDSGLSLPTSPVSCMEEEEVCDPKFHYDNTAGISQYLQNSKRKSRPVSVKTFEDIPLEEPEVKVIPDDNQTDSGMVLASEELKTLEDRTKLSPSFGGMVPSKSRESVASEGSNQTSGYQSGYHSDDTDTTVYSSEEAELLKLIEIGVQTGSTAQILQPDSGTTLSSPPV
Description for Aurora kinase A: Inhibition of recombinant GST-tagged Aurora-A kinase domain (S123 to S401) (unknown origin) expressed in insect Sf9 cells using tetra(LRRASLG) peptide as substrate after 90 mins by Kinase-Glo assay

For the compound `Cc1nc(Nc2ncc(-c3ccc(NC(=O)Nc4ccccc4)cc3)s2)cc(N2CCC(N)CC2)n1`, the figures for the pIC50 (in data set [1]; against Aurora kinase A; in data set [3]) were 7.28, 6.82 and 7.14, respectively. The compound also came in with a GI50 in data set [2] of 0.016 µM.

On to `CCN1CCN(c2cc(Nc3ncc(-c4ccc(NC(=O)c5ccccc5)cc4)s3)nc(C)n2)CC1`, for which the pIC50 was under 6.00 in data set [1], 6.85 on Aurora kinase A and 6.07 in data set [3]. Moreover, halving of growth in data set [2] (GI50) required 0.019 µM.

For `CCN1CCN(c2cc(Nc3ncc(-c4ccc(NC(=O)Nc5cc(C6CC6)on5)cc4)s3)nc(C)n2)CC1`, the values for the pIC50 (in data set [1]; against Aurora kinase A; in data set [3]) were 7.82, 7.44 and 7.48, respectively. Moreover, it took 0.002 µM to inhibit growth in data set [2] by half (GI50).

`CCc1cc(NC(=O)Nc2ccc(-c3cnc(Nc4cc(N5CCC(N)C5)nc(C)n4)s3)cc2)no1` (centres undefined): the GI50 in data set [2] stood at 0.003 µM.

`CCc1cc(NC(=O)Nc2ccc(-c3cnc(Nc4cc(N5CCN(C)CC5)nc(C)n4)s3)cc2)no1`: the pIC50 in data set [1] is 8.00; against Aurora kinase A, 7.39; in data set [3], 7.31. Moreover, in data set [4], the AUC(0-inf) worked out at 632 ng·h/mL. This compound came in with a bioavailability in data set [5] of 18%. In addition, in data set [2], the GI50 is 0.003 µM.

Take `Cc1nc(Nc2ncc(-c3ccc(NC(=O)Nc4cccc(Cl)c4)cc3)s2)cc(N2CCNCC2)n1`: the figures for the pIC50 (in data set [1]; against Aurora kinase A; in data set [3]) were 7.51, 6.57 and 7.70, respectively. Further, growth in data set [2] was halved (GI50) at 0.024 µM.

For the compound `CCN1CCN(c2cc(Nc3ncc(-c4ccc(NC(=O)Nc5ccc(Cl)cc5)cc4)s3)nc(C)n2)CC1`, the negative logarithm of the IC50 (pIC50) in data set [1] is 7.37; against Aurora kinase A, 7.02; in data set [3], 6.49. Further, in data set [2], the GI50 was determined as 0.009 µM.

As to `CCN1CCN(c2cc(Nc3ncc(-c4ccc(NC(=O)OCc5ccccc5)cc4)s3)nc(C)n2)CC1`, the pIC50 in data set [1] is 6.92; at Aurora kinase A it was 6.49; in data set [3] it was 7.08. Moreover, the AUC(0-inf) in data set [4] was 66 ng·h/mL. The same compound yielded a GI50 in data set [2] of 0.003 µM.

On to `Cc1nc(Nc2ncc(-c3ccc(NC(=O)Nc4ccccc4)cc3)s2)cc(N2CCN(C)CC2)n1`, for which the pIC50 is 6.80 in data set [1], under 5.00 against Aurora kinase A and 7.10 in data set [3]. The GI50 in data set [2] came to 0.024 µM.

For the compound `Cc1nc(Nc2ncc(-c3ccc(NC(=O)Nc4cc(C)on4)cc3)s2)cc(N2CCN(C)CC2)n1`, the figures for the pIC50 (in data set [1]; at Aurora kinase A; in data set [3]) were 7.82, 7.25 and 8.00, respectively. In data set [4], this compound gave an AUC(0-inf) of 313 ng·h/mL. Besides, the bioavailability in data set [5] turned out to be 10%. Also, in data set [2], it took 0.001 µM to inhibit growth by half (GI50).

Take `CCCCc1cc(NC(=O)Nc2ccc(-c3cnc(Nc4cc(N5CCN(C)CC5)nc(C)n4)s3)cc2)no1`: the pIC50 is 7.26 in data set [1], 7.42 on Aurora kinase A and 7.66 in data set [3]. Besides, in data set [2], the GI50 came to 0.014 µM.

Regarding `CCN1CCN(c2cc(Nc3ncc(-c4ccc(NS(=O)(=O)c5ccccc5)cc4)s3)nc(C)n2)CC1`, the negative logarithm of the IC50 (pIC50) is 6.77 in data set [1], 7.37 against Aurora kinase A and 6.28 in data set [3]. For the same compound, the GI50 in data set [2] was found to be 0.14 µM.

Turning to `Cc1cc(NC(=O)Nc2ccc(-c3cnc(NC(=O)c4ccc(OCCN5CCOCC5)cc4)s3)cc2)no1`, the pIC50 is 6.43 in data set [1], 7.60 against Aurora kinase A and 6.24 in data set [3]. The compound further came in with a GI50 in data set [2] of 0.21 µM.
